Article PMC8319832, “Fine-Tuning of Alkaline Residues on the Hydrophilic Face Provides a Non-toxic Cationic α-Helical Antimicrobial Peptide Against Antibiotic-Resistant ESKAPE Pathogens” (Frontiers in Microbiology, 2021)
Converted amounts (≈) assume the structure as drawn. Where a SMILES comes first, the peptide text is derived from it.

Columns and labels:
[1] = test system: E. coli ATCC25922; assay: MIC, broth dilution; type: cell-based, Escherichia coli; settings: CLSI broth dilution, MHB, 6.25 × 10^5 cfu per ml, 37°C, 20 h, OD630, at least three repeats
[2] = test system: S. aureus ATCC29213; assay: MIC, broth dilution; type: cell-based, Staphylococcus aureus; settings: CLSI broth dilution, MHB, 6.25 × 10^5 cfu per ml, 37°C, 20 h, OD630, at least three repeats
Description: All experiments were repeated at least three times.
To study the influence of physiological ions on the antimicrobial activities of the peptides, The MICs of the peptides were also determined against the standard bacterial strains cultured in MHB containing various salts at their physiological concentrations (150 mM NaCl, 4.5 mM KCl, 1 mM MgCl2, 2 mM CaCl2, 6 μM NH4HCO3, and 4 μM FeCl3) ([Ma et al., 2016]).

[3] = test system: human red blood cells (hRBCs); assay: Hemolytic activity determination; type: cell-based; settings: hRBCs in 0.9% sodium chloride, 37°C, 1 h, OD540, 1% Triton X-100 = 100%, three independent experiments
Description: Fresh human red blood cells (hRBCs) were collected in a sterile borosilicate glass tube covered with sodium citrate as the anticoagulating agent. […] Two-fold dilutions of the peptides were prepared in 0.9% sodium chloride to 100 μl and mixed with equal volumn of hRBC suspension to final peptide concentrations ranging from 12.5 to 200 μg ml^–1. After co-incubation at 37°C for 1 h, the samples were centrifuged (2,000 × g, 4°C, 20 min), and the supernatant (100 μl) was taken for optical density (OD540) measurements (Asample). The hRBCs assayed with 0.9% sodium chloride (Ablank) or 1% Triton X-100 (Apositive) were applied as 0% and 100% hemolysis, respectively. Three independent experiments were performed and the percent hemolysis was calculated according to the following equation ([Yin et al., 2012]; [Li et al., 2016]):
Hemolysis(%)=100*(Asample-Ablank)/(Apositive-Ablank)

Structure (SMILES)	MIC [1]	MIC [2]	percent hRBC hemolysis ([3]; peptide 25 μg ml^–1)	percent hRBC hemolysis ([3]; peptide 100 μg ml^–1)
CC[C@H](C)[C@H](NC(=O)[C@H](CCCNC(=N)N)NC(=O)CNC(=O)[C@@H](NC(=O)[C@@H](N)Cc1ccccc1)[C@@H](C)CC)C(=O)N[C@@H](C)C(=O)N[C@@H](CCCNC(=N)N)C(=O)N[C@@H](CC(C)C)C(=O)N[C@@H](CC(C)C)C(=O)N[C@@H](CO)C(=O)N[C@@H](CCCCN)C(=O)N[C@H](C(=O)N[C@@H](Cc1ccccc1)C(N)=O)[C@@H](C)CC [Kn2(A4R)] (H-FIGRIARLLSKIF-NH2)	10 µg/mL (≈ 6.52 µM)	5 µg/mL (≈ 3.26 µM)	100%	
CC[C@H](C)[C@H](NC(=O)[C@H](CCCNC(=N)N)NC(=O)CNC(=O)[C@@H](NC(=O)[C@@H](N)Cc1ccccc1)[C@@H](C)CC)C(=O)N[C@@H](C)C(=O)N[C@@H](CCCNC(=N)N)C(=O)N[C@@H](CC(C)C)C(=O)N[C@@H](CC(C)C)C(=O)N[C@@H](CCCNC(=N)N)C(=O)N[C@@H](CCCCN)C(=O)N[C@H](C(=O)N[C@@H](Cc1ccccc1)C(N)=O)[C@@H](C)CC [Kn2(A4R_S10R)] (H-FIGRIARLLRKIF-NH2)	20 µg/mL (≈ 12.5 µM)	10 µg/mL (≈ 6.24 µM)	18.0%	
CC[C@H](C)[C@H](NC(=O)[C@H](C)NC(=O)[C@H](CCCCN)NC(=O)[C@@H](NC(=O)[C@@H](N)Cc1ccccc1)[C@@H](C)CC)C(=O)N[C@@H](C)C(=O)N[C@@H](CCCNC(=N)N)C(=O)N[C@@H](CC(C)C)C(=O)N[C@@H](CC(C)C)C(=O)N[C@@H](CO)C(=O)N[C@@H](CCCCN)C(=O)N[C@H](C(=O)N[C@@H](Cc1ccccc1)C(N)=O)[C@@H](C)CC [Kn2(G3K)] (H-FIKAIARLLSKIF-NH2)	40 µg/mL (≈ 26.3 µM)	5 µg/mL (≈ 3.29 µM)	69.0%	
CC[C@H](C)[C@H](NC(=O)[C@H](CCCNC(=N)N)NC(=O)[C@H](CCCCN)NC(=O)[C@@H](NC(=O)[C@@H](N)Cc1ccccc1)[C@@H](C)CC)C(=O)N[C@@H](C)C(=O)N[C@@H](CCCNC(=N)N)C(=O)N[C@@H](CC(C)C)C(=O)N[C@@H](CC(C)C)C(=O)N[C@@H](CO)C(=O)N[C@@H](CCCCN)C(=O)N[C@H](C(=O)N[C@@H](Cc1ccccc1)C(N)=O)[C@@H](C)CC [Kn2(G3K_A4R)] (H-FIKRIARLLSKIF-NH2)	10 µg/mL (≈ 6.23 µM)	5 µg/mL (≈ 3.12 µM)	8.3%	
CC[C@H](C)[C@H](NC(=O)[C@H](C)NC(=O)[C@H](CCCCN)NC(=O)[C@@H](NC(=O)[C@@H](N)Cc1ccccc1)[C@@H](C)CC)C(=O)N[C@@H](C)C(=O)N[C@@H](CCCNC(=N)N)C(=O)N[C@@H](CC(C)C)C(=O)N[C@@H](CC(C)C)C(=O)N[C@@H](CCCNC(=N)N)C(=O)N[C@@H](CCCCN)C(=O)N[C@H](C(=O)N[C@@H](Cc1ccccc1)C(N)=O)[C@@H](C)CC [Kn2(G3K_S10R)] (H-FIKAIARLLRKIF-NH2)	20 µg/mL (≈ 12.6 µM)	10 µg/mL (≈ 6.3 µM)	77.5%	
CC[C@H](C)[C@H](NC(=O)[C@H](C)NC(=O)CNC(=O)[C@@H](NC(=O)[C@@H](N)Cc1ccccc1)[C@@H](C)CC)C(=O)N[C@@H](C)C(=O)N[C@@H](CCCNC(=N)N)C(=O)N[C@@H](CC(C)C)C(=O)N[C@@H](CC(C)C)C(=O)N[C@@H](CCCNC(=N)N)C(=O)N[C@@H](CCCCN)C(=O)N[C@H](C(=O)N[C@@H](Cc1ccccc1)C(N)=O)[C@@H](C)CC [Kn2(S10R)] (H-FIGAIARLLRKIF-NH2)	20 µg/mL (≈ 13.2 µM)	10 µg/mL (≈ 6.59 µM)	50.9%	
CC[C@H](C)[C@H](NC(=O)[C@H](CCCNC(=N)N)NC(=O)[C@H](CCCNC(=N)N)NC(=O)[C@@H](NC(=O)[C@@H](N)Cc1ccccc1)[C@@H](C)CC)C(=O)N[C@@H](C)C(=O)N[C@@H](CCCNC(=N)N)C(=O)N[C@@H](CC(C)C)C(=O)N[C@@H](CC(C)C)C(=O)N[C@@H](CCCNC(=N)N)C(=O)N[C@@H](CCCCN)C(=O)N[C@H](C(=O)N[C@@H](Cc1ccccc1)C(N)=O)[C@@H](C)CC [Kn2-7(K3R)] (H-FIRRIARLLRKIF-NH2)	20 µg/mL (≈ 11.8 µM)	5 µg/mL (≈ 2.94 µM)		89.3%
CC[C@H](C)[C@H](NC(=O)[C@H](CCCNC(=N)N)NC(=O)[C@H](CCCCN)NC(=O)[C@@H](NC(=O)[C@@H](N)Cc1ccccc1)[C@@H](C)CC)C(=O)N[C@@H](C)C(=O)N[C@@H](CCCNC(=N)N)C(=O)N[C@@H](CC(C)C)C(=O)N[C@@H](CC(C)C)C(=O)N[C@@H](CCCNC(=N)N)C(=O)N[C@@H](CCCNC(=N)N)C(=O)N[C@H](C(=O)N[C@@H](Cc1ccccc1)C(N)=O)[C@@H](C)CC [Kn2-7(K11R)] (H-FIKRIARLLRRIF-NH2)	10 µg/mL (≈ 5.88 µM)	5 µg/mL (≈ 2.94 µM)		
CC[C@H](C)[C@H](NC(=O)[C@H](CCCCN)NC(=O)[C@H](CCCCN)NC(=O)[C@@H](NC(=O)[C@@H](N)Cc1ccccc1)[C@@H](C)CC)C(=O)N[C@@H](C)C(=O)N[C@@H](CCCNC(=N)N)C(=O)N[C@@H](CC(C)C)C(=O)N[C@@H](CC(C)C)C(=O)N[C@@H](CCCNC(=N)N)C(=O)N[C@@H](CCCCN)C(=O)N[C@H](C(=O)N[C@@H](Cc1ccccc1)C(N)=O)[C@@H](C)CC [Kn2-7(R4K)] (H-FIKKIARLLRKIF-NH2)	5 µg/mL (≈ 3.04 µM)	5 µg/mL (≈ 3.04 µM)		
CC[C@H](C)[C@H](NC(=O)[C@H](CCCCN)NC(=O)[C@H](CCCCN)NC(=O)[C@@H](NC(=O)[C@@H](N)Cc1ccccc1)[C@@H](C)CC)C(=O)N[C@@H](C)C(=O)N[C@@H](CCCCN)C(=O)N[C@@H](CC(C)C)C(=O)N[C@@H](CC(C)C)C(=O)N[C@@H](CCCNC(=N)N)C(=O)N[C@@H](CCCCN)C(=O)N[C@H](C(=O)N[C@@H](Cc1ccccc1)C(N)=O)[C@@H](C)CC [Kn2-7(R4K_R7K)] (H-FIKKIAKLLRKIF-NH2)	10 µg/mL (≈ 6.18 µM)	5 µg/mL (≈ 3.09 µM)		
CC[C@H](C)[C@H](NC(=O)[C@H](CCCCN)NC(=O)[C@H](CCCCN)NC(=O)[C@@H](NC(=O)[C@@H](N)Cc1ccccc1)[C@@H](C)CC)C(=O)N[C@@H](C)C(=O)N[C@@H](CCCNC(=N)N)C(=O)N[C@@H](CC(C)C)C(=O)N[C@@H](CC(C)C)C(=O)N[C@@H](CCCCN)C(=O)N[C@@H](CCCCN)C(=O)N[C@H](C(=O)N[C@@H](Cc1ccccc1)C(N)=O)[C@@H](C)CC [Kn2-7(R4K_R10K)] (H-FIKKIARLLKKIF-NH2)	5 µg/mL (≈ 3.09 µM)	2.5 µg/mL (≈ 1.55 µM)		
CC[C@H](C)[C@H](NC(=O)[C@H](CCCNC(=N)N)NC(=O)[C@H](CCCCN)NC(=O)[C@@H](NC(=O)[C@@H](N)Cc1ccccc1)[C@@H](C)CC)C(=O)N[C@@H](C)C(=O)N[C@@H](CCCCN)C(=O)N[C@@H](CC(C)C)C(=O)N[C@@H](CC(C)C)C(=O)N[C@@H](CCCNC(=N)N)C(=O)N[C@@H](CCCCN)C(=O)N[C@H](C(=O)N[C@@H](Cc1ccccc1)C(N)=O)[C@@H](C)CC [Kn2-7(R7K)] (H-FIKRIAKLLRKIF-NH2)	20 µg/mL (≈ 12.2 µM)	5 µg/mL (≈ 3.04 µM)		
CC[C@H](C)[C@H](NC(=O)[C@H](CCCNC(=N)N)NC(=O)[C@H](CCCCN)NC(=O)[C@@H](NC(=O)[C@@H](N)Cc1ccccc1)[C@@H](C)CC)C(=O)N[C@@H](C)C(=O)N[C@@H](CCCCN)C(=O)N[C@@H](CC(C)C)C(=O)N[C@@H](CC(C)C)C(=O)N[C@@H](CCCCN)C(=O)N[C@@H](CCCCN)C(=O)N[C@H](C(=O)N[C@@H](Cc1ccccc1)C(N)=O)[C@@H](C)CC [Kn2-7(R7K_R10K)] (H-FIKRIAKLLKKIF-NH2)	20 µg/mL (≈ 12.4 µM)	5 µg/mL (≈ 3.09 µM)		
CC[C@H](C)[C@H](NC(=O)[C@H](CCCNC(=N)N)NC(=O)[C@H](CCCCN)NC(=O)[C@@H](NC(=O)[C@@H](N)Cc1ccccc1)[C@@H](C)CC)C(=O)N[C@@H](C)C(=O)N[C@@H](CCCNC(=N)N)C(=O)N[C@@H](CC(C)C)C(=O)N[C@@H](CC(C)C)C(=O)N[C@@H](CCCCN)C(=O)N[C@@H](CCCCN)C(=O)N[C@H](C(=O)N[C@@H](Cc1ccccc1)C(N)=O)[C@@H](C)CC [Kn2-7(R10K)] (H-FIKRIARLLKKIF-NH2)	5 µg/mL (≈ 3.04 µM)	5 µg/mL (≈ 3.04 µM)		
